# Test results: the NIST ThermoML archive (doi:10.1016/j.jct.2007.04.009)
# ± gives the expanded uncertainty stated by the source.
# Test: cn = amount concentration of the nth substance listed, in mol/dm3
# Settings: 101 kPa, Liquid; for speed of sound: Sing-around technique in a fixed-path interferometer; for mass density: Vibrating tube method
smiles,measurement,setting,value
Cl [hydrogen chloride] + O,speed of sound,"283.15 K, c1 = 0.001",1447.9 ± 0.99 m/s
same,speed of sound,"283.15 K, c1 = 0.01",1448.2 ± 0.99 m/s
same,mass density,"283.15 K, c1 = 0.001",999.726 ± 0.047 kg/m3
same,mass density,"283.15 K, c1 = 0.01",999.891 ± 0.047 kg/m3
same,speed of sound,"293.15 K, c1 = 0.001",1482.6 ± 1 m/s
same,speed of sound,"293.15 K, c1 = 0.01",1482.7 ± 1 m/s
same,mass density,"293.15 K, c1 = 0.001",998.23 ± 0.058 kg/m3
same,mass density,"293.15 K, c1 = 0.01",998.393 ± 0.044 kg/m3
same,speed of sound,"298.15 K, c1 = 0.001",1496.8 ± 0.99 m/s
same,speed of sound,"298.15 K, c1 = 0.01",1496.9 ± 0.99 m/s
same,mass density,"298.15 K, c1 = 0.001",997.067 ± 0.053 kg/m3
same,mass density,"298.15 K, c1 = 0.01",997.231 ± 0.046 kg/m3
same,speed of sound,"303.15 K, c1 = 0.001",1509.3 ± 0.99 m/s
same,speed of sound,"303.15 K, c1 = 0.01",1509.3 ± 0.99 m/s
same,mass density,"303.15 K, c1 = 0.001",995.67 ± 0.054 kg/m3
same,mass density,"303.15 K, c1 = 0.01",995.834 ± 0.049 kg/m3
same,speed of sound,"308.15 K, c1 = 0.001",1520 ± 0.99 m/s
same,speed of sound,"308.15 K, c1 = 0.01",1520 ± 0.99 m/s
same,mass density,"308.15 K, c1 = 0.001",994.057 ± 0.06 kg/m3
same,mass density,"308.15 K, c1 = 0.01",994.318 ± 0.05 kg/m3
same,speed of sound,"313.15 K, c1 = 0.001",1529.1 ± 0.99 m/s
same,speed of sound,"313.15 K, c1 = 0.01",1529.1 ± 0.99 m/s
same,mass density,"313.15 K, c1 = 0.001",992.244 ± 0.052 kg/m3
same,mass density,"313.15 K, c1 = 0.01",992.405 ± 0.053 kg/m3
